According to patent US20180028478A1, “ANTIVIRAL COMPOSITIONS DIRECTED AGAINST THE NUCLEOPROTEIN OF INFLUENZA VIRUSES” (priority 2011, published 2018):
Values joined by “and” are separate entries in the source; they are usually repeats but may differ in a detail not shown here. Identical values can stand only once. Like-named read-outs stand apart in the source and are kept apart here.

How the values were obtained:
[1] = system: Influenza A/WSN/33 virus; experiment: microbe, parasite or virus in culture; format: cell-based, Influenza A/WSN/33 (H1N1); conditions: for IC50: Influenza A virus, WSN, MDCK, read-out: IC50 decrease × 10 viral titer/control (n = 2)
[2] = system: Influenza A/PR8/34 virus; set-up: species or system Balb/C mice; conditions: mouse, in vivo
[3] = system: H1N1 WSN strain
[4] = system: H3N2 virus A/Udorn; conditions: MTT 24 h; A/Udorn MOI 10^−1; 100 μM

Row | SMILES | IC10 decrease × 10 viral titer/control (n = 2) [1] | viral titer decrease, Naproxen vs Tamiflu [1] | Viral titer Pfu/ml MDCK cells ([1]; 50 μM) | IC50 ([1]; 24 h) [µM] | also measured
1 | COc1ccc2cc(C(C)C(=O)O)ccc2c1 (stereo not shown) [Naproxen] | ~50 μM | viral titer decreases similarly | – | – | decrease of viral titers with concentration [1]: the greater the concentration in Naproxen, the quicker the decrease of the viral titers; IC50 ([1]; 48 h): ~10 µM; weight loss [2]: 19%; decrease factor of viral titer in lungs vs untreated infected controls ([2]; ip): ~42 factor; infectious outbreaks in the cell layer and dead cells [3]: reduced the number and the size of the infectious outbreaks; localisation of nucleoprotein [3]: has not modified the localisation of nucleoprotein; Protection % [4]: 85 ± 2%
2 | CCOC(=O)C1=C[C@@H](OC(CC)CC)[C@H](NC(C)=O)[C@@H](N)C1 [Tamiflu, oseltamivir] | – | viral titer decreases similarly | – | – | decrease factor of viral titer in lungs vs untreated infected controls [2]: ~100 factor
3 | O=C(O)c1ccc(C=Nn2c(S)nnc2-c2ccc(Cl)cc2Cl)cc1 [compound 59] | ~30 μM | – | 5.5 ± 2.5 × 10^5 Pfu/ml | ~5 | –
4 | Cc1ccc(-c2nnc(S)n2/N=C/c2ccc(C(=O)O)cc2)cc1 [compound 72] | ~20 μM and ~35 μM | – | 7.6 ± 4.0 × 10^5 Pfu/ml and 3.9 ± 1.6 × 10^6 Pfu/ml | ~5 | –
5 | COc1ccc(-c2nnc(S)n2N=Cc2ccc(C(=O)O)cc2)cc1 [compound 88] | No effect | – | – | – | Viral titer Pfu/ml MDCK cells ([1]; 5 μM): 1-4 × 10^7 Pfu/ml
